Measurements as given in patent publication US20050059731A1, “Erythrosin-based antimicrobial photodynamic therapy compound and its use” (CeramOptec Industries, Inc., priority 2003, published 2005).

Tested on: Streptococcus mutans DSM6178 (ATCC 35668)
Assay: Photodynamic inactivation of bacterial cell suspensions of Streptococcus mutans by Erythrosin B gel
Assay type: cell-based
Settings: in saliva; general statement
Experimental: Photodynamic Inactivation of Bacterial Cell Suspensions of Streptococcus mutans by Erythrosin B: The organism used in this study was Streptococcus mutans DSM6178 (ATCC 35668). Gram-positive Streptococcus spec. are jointly responsible for the development of oral caries. Streptococcus mutans cells were grown aerobically overnight at 37° C. in Tryptic Soy Broth (Merck KGaA Darmstadt, Germany). Cells were harvested by centrifugation and resuspended in sterile phosphate-buffered saline (PBS) supplemented with 10% sterile filtered natural saliva. The final OD (Optical Density) at 600 nm, for a 1 cm path length, in all cases was 0.05. About 0.5 ml of an Erythrosin B gel of hydroxyethyl cellulose (1 mM, 2 mM, 3 mM and 8 mM Erythrosin B) were placed at the bottom of a tube. The gel was layered with 0.5 ml of the bacterial suspension and exposed for 1, 3 or 5 minutes, respectively under slight shaking at room temperature. After exposure 250 μl of the suspension was placed in a new tube, the tube was centrifuged, the supernatant was removed and the cell pellet was resuspended in 250 μl of PBS+10% natural saliva (sterile filtered). […] The fluence rate for these settings was about 0.1 W/cm^2 (measured with Optometer P-9710, Gigahertz-Optik GmbH, Puchheim, Germany). […]

## O.O=C([O-])c1ccccc1-c1c2cc(I)c(=O)c(I)c-2oc2c(I)c([O-])c(I)cc12.[Na+].[Na+] [Erythrosin B]
  photosensitizing effectiveness against Gram-positive bacteria: effective photosensitizing substance against Gram-positive bacteria in saliva
